Results: patent publication US20220378923A1, “BET DEGRADER” (KYOWA KIRIN CO., LTD., priority 2019, published 2022)

Tested on: DCAF16 KO SU-DHL-4 cells
Experiment: Inhibitory effect on cell viability using SU-DHL-4 DCAF16 knock out (KO) cell line (Test Example 6)
Type: cell-based, human
Details: for Activity Attenuation Ratio: (SU-DHL-4 DCAF16 KO IC50)/(SU-DHL-4 WT IC50); for IC50: DCAF16 KO SU-DHL-4 cells, 72 hours, Cell Counting Kit-8, 50% inhibition of cell viability
Procedure: The human DLBCL cell line SU-DHL-4 was purchased from DSMZ. SU-DHL-4 was passaged using RPMI1640 medium containing 10 vol % FBS. After the Cas9 gene was introduced, the cells were cultured in the above medium containing 0.01 mg/mL blasticidin (InvivoGen, Cat No. ant-bl-1). After introduction of sgRNA, the cells were cultured in the above medium containing 0.0001 mg/mL puromycin dihydrochloride (SIGMA, Cat No. P9020-10 ML). The culture conditions were 37° C. and 5% CO2.
Edit-R Lentiviral hEF1α-Blast-Cas9 Nuclease Particles (Cat No. VCAS10126) was used as a lentivirus for expressing Cas9 in human cell lines. Three types of Edit-R Human DCAF16 Lentiviral sgRNA (Cat No. VSGH10142-246568260; DNA target sequence […] (SEQ ID NO: 1), Cat No. VSGH10142-246568262; DNA target sequence […] (SEQ ID NO: 2) and Cat No. VSGH10142-246568263; DNA target sequence […] (SEQ ID NO: 3)) were used as lentiviruses for introducing DCAF16 sgRNA. As a control, Edit-R Lentiviral sgRNA Non-targeting Control #1 (Cat No. VSGC10215) was used. All lentiviruses were purchased from Dharmacon and stored at −80° C. until use.
SU-DHL-4 was suspended at 4×10^5 cells/mL in RPMI 1640 without FBS, 0.25 mL of the suspension was added to a 24-well plate, and the cells were cultured overnight. The next day, 0.003 mL of virus particles of Edit-R Lentiviral hEF1α-Blast-Cas9 Nuclease Particles was added. After culturing in a CO2 incubator for 4 hours, RPMI 1640 containing 0.75 mL of 10 vol % FBS was added. After culturing in a CO2 incubator for about 48 hours, the medium was replaced with RPMI1640 containing 10 vol % FBS, and the cells were cultured in a CO2 incubator. Four days after infection, the medium was replaced with a medium containing 0.01 mg/mL blasticidin (InvivoGen, Cat No. ant-bl-1). Then, the cells were passaged once every 2 to 3 days and thus twice in total (that is, cultured for 1 week) to obtain SU-DHL-4/Cas9, which is a Cas9-introduced SU-DHL-4 cell line.
(6) sgRNA infection SU-DHL-4/Cas9 was suspended at 4×10^5 cells/mL in RPMI 1640 without FBS, 0.25 mL of the suspension was added to a 24-well plate, and the cells were cultured overnight. The next day, a total of 4 types of sgRNA virus particles, 1 type of Control and 3 types targeting DCAF16 were added to the respective wells by 0.03 mL. After culturing in a CO2 incubator for 5 hours, RPMI 1640 containing 0.75 mL of 10 vol % FBS was added.
After culturing in a CO2 incubator for about 48 hours, the medium was replaced with RPMI1640 containing 10 vol % FBS, and the cells were cultured in a CO2 incubator. Four days after infection, the medium was replaced with a medium supplemented with 0.01 mg/mL puromycin dihydrochloride (SIGMA, Cat No. P9020-10 ML). Then, the cells were passaged once or twice a week for 2 weeks, and a cell stock was prepared using CELLBANKER I plus (Takara Bio, Cat No. CB-021). Cell line stock was stored at −80° C. Using Edit-R Lentiviral sgRNA Non-targeting Control #1, the Negative Control sequence was introduced into the SU-DHL-4 cell line, which was referred to as SU-DHL-4 NC strain, and using Edit-R Human DCAF16 Lentiviral sgRNA, […] sequence (SEQ ID NO: 1) was introduced into the SU-DHL-4 cell line, which was referred to as SU-DHL-4 DCAF16 KO1 strain, […] sequence (SEQ ID NO: 2) was introduced into the SU-DHL-4 cell line, which was referred to as SU-DHL-4 DCAF16 KO2 strain, and […] sequence (SEQ ID NO: 3) was introduced into the SU-DHL-4 cell line, which was referred to as SU-DHL-4 DCAF16 KO 3 strain.
The cultured DCAF16 KO SU-DHL-4 cells were seeded at 2000 cells/well in a transparent 384-well plate (Code No. 781182, Greiner bio-one). After seeding, the cells were pre-cultured at 37° C. in a carbon dioxide gas incubator for 18 to 25 hours. […]

SMILES | Activity Attenuation Ratio | IC50 (Homo sapiens) [nM] | IC50 [nM]
CCC(=O)N1c2ccccc2[C@H](NCc2ccc(C(=O)N3CC(C(=O)Nc4ccc(N[C@@H]5C[C@H](C)N(C(=O)CC)c6ccccc65)cc4)C3)cc2)C[C@@H]1C (relative stereo) [Compound 10g, 1-(4-((((2S*,4R*)-2-Methyl-1-propionyl-1,2,3,4-tetrahydroquinolin-4-yl)amino)methyl)benzoyl)-N-(4-(((2S,4R)-2-methyl-1-propionyl-1,2,3,4-tetrahydroquinolin-4-yl)amino)phenyl)azetidine-3-carboxamide] | 154 | 142 | –
CCC(=O)N1c2ccccc2[C@H](Nc2ccc(C(=O)NCC(=O)CNC(=O)c3ccc(N[C@@H]4C[C@H](C)N(C(=O)CC)c5ccccc54)cc3)cc2)C[C@@H]1C [Compound 1l, N,N′-(2-Oxopropane-1,3-diyl)bis(4-{[(2S,4R)-2-methyl-1-propionyl-1,2,3,4-tetrahydroquinolin-4-yl]amino}benzamide)] | 3357 | 101 | –
CCC(=O)N1c2ccccc2[C@H](Nc2ccc(NC(=O)C3CN(C(=O)C4CCN(Cc5cc(O)cc(-c6c(C)noc6C)c5)CC4)C3)cc2)C[C@@H]1C [Compound 12b, 1-(1-(3-(3,5-Dimethylisoxazol-4-yl)-5-hydroxybenzyl)piperidine-4-carbonyl)-N-(4-(((2S,4R)-2-methyl-1-propionyl-1,2,3,4-tetrahydroquinolin-4-yl)amino)phenyl)azetidine-3-carboxamide] | >3526 | > 10000 | –
CCC(=O)N1c2ccccc2[C@H](Nc2ccc(NC(=O)CCCC(=O)NC3CCC(Cn4cc(-c5c(C)noc5C)ccc4=O)CC3)cc2)C[C@@H]1C (stereo partly drawn) [Compound 16p, N^1-((1r,4r)-4-((5-(3,5-Dimethylisoxazol-4-yl)-2-oxopyridin-1(2H)-yl)methyl)cyclohexyl)-N5-(4-(((2S,4R)-2-methyl-1-propionyl-1,2,3,4-tetrahydroquinolin-4-yl)amino)phenyl)glutaramide] | 3390 | – | 925
CCC(=O)N1c2ccccc2[C@H](Nc2ccc(CNCc3cn(-c4ccc(N[C@@H]5C[C@H](C)N(C(=O)CC)c6ccccc65)cc4)nn3)cc2)C[C@@H]1C [Compound 5h, 1-((2S,4R)-2-Methyl-4-((4-((((1-(4-(((2S,4R)-2-methyl-1-propionyl-1,2,3,4-tetrahydroquinolin-4-yl)amino)phenyl)-1H-1,2,3-triazol-4-yl)methyl)amino)methyl)phenyl)amino)-3,4-dihydroquinolin-1(2H)-yl)propan-1-one] | 942 | 58.4 | –
CCC(=O)N1c2ccccc2[C@H](Nc2ccc(CCCC(=O)Nc3ccc(N[C@@H]4C[C@H](C)N(C(=O)CC)c5ccccc54)cc3)cc2)C[C@@H]1C [Compound 5r, N,4-Bis(4-(((2S,4R)-2-methyl-1-propionyl-1,2,3,4-tetrahydroquinolin-4-yl)amino)phenyl)butanamide] | 30 | 15.7 | –
CCC(=O)N1c2ccccc2[C@H](NCC23CCC(C(=O)N4CC(C(=O)Nc5ccc(N[C@@H]6C[C@H](C)N(C(=O)CC)c7ccccc76)cc5)C4)(CC2)CC3)C[C@@H]1C (relative stereo) [Compound 17o, 1-(4-((((2S,4R)-2-Methyl-1-propionyl-1,2,3,4-tetrahydroquinolin-4-yl)amino)methyl)bicyclo[2.2.2]octane-1-carbonyl)-N-(4-(((2S*,4R*)-2-methyl-1-propionyl-1,2,3,4-tetrahydroquinolin-4-yl)amino)phenyl)azetidine-3-carboxamide] | 670 | 522 | –
CCC(=O)N1c2ccccc2[C@H](Nc2ccc(NC(=O)CCCC(=O)Nc3ccc(Cn4cc(-c5c(C)noc5C)ccc4=O)cc3)cc2)C[C@@H]1C [Compound 17a, N^1-(4-((5-(3,5-Dimethylisoxazol-4-yl)-2-oxopyridin-1(2H)-yl)methyl)phenyl)-N5-(4-(((2S,4R)-2-methyl-1-propionyl-1,2,3,4-tetrahydroquinolin-4-yl)amino)phenyl)glutaramide] | 1895 | 182 | –
CCC(=O)N1c2ccccc2[C@H](Nc2ccc(NC(=O)CNC(=O)Nc3ccc(C4=NCc5nnc(C)n5-c5sc(C)c(C)c54)cc3)cc2)C[C@@H]1C [Compound 14f, N-(4-(((2S,4R)-2-Methyl-1-propionyl-1,2,3,4-tetrahydroquinolin-4-yl)amino)phenyl)-2-(3-(4-(2,3,9-trimethyl-6H-thieno[3,2-f][1,2,4]triazolo[4,3-a][1,4]diazepin-4-yl)phenyl)ureido)acetamide] | 22 | 2.95 | –
CCC(=O)N1c2ccccc2[C@H](Nc2ccc(Cc3cnc4n3CCN(C(=O)c3ccc(N[C@@H]5C[C@H](C)N(C(=O)CC)c6ccccc65)cc3)C4)cc2)C[C@@H]1C [Compound 5q, 1-((2S,4R)-2-Methyl-4-((4-((7-(4-(((2S,4R)-2-methyl-1-propionyl-1,2,3,4-tetrahydroquinolin-4-yl)amino)benzoyl)-5,6,7,8-tetrahydroimidazo[1,2-a]pyrazin-3-yl)methyl)phenyl)amino)-3,4-dihydroquinolin-1(2H)-yl)propan-1-one] | 7078 | 622 | –
CCC(=O)N1c2ccccc2[C@H](Nc2ccc(C(=O)NCc3cn(-c4ccc(N[C@@H]5C[C@H](C)N(C(=O)CC)c6ccccc65)cc4)nn3)cc2)C[C@@H]1C [Compound 3a, 4-{[(2S,4R)-2-Methyl-1-propionyl-1,2,3,4-tetrahydroquinolin-4-yl]amino}-N-{[1-(4-{[(2S,4R)-2-methyl-1-propionyl-1,2,3,4-tetrahydroquinolin-4-yl]amino}phenyl)-1H-1,2,3-triazol-4-yl]methyl}benzamide] | 263 | 6.58 | –
CCC(=O)N1c2ccccc2[C@H](Nc2ccc(NC(=O)CNCC(=O)Nc3ccc(N[C@@H]4C[C@H](C)N(C(=O)CC)c5ccccc54)cc3)cc2)C[C@@H]1C [Compound 5d, 2,2′-Azanediylbis(N-(4-(((2S,4R)-2-methyl-1-propionyl-1,2,3,4-tetrahydroquinolin-4-yl)amino)phenyl)acetamide)] | 546 | 167 | –
CCC(=O)N1c2ccccc2[C@H](Nc2ccc(-n3cc(CNC(=O)N4CCC(N[C@@H]5C[C@H](C)N(C(=O)CC)c6ccccc65)CC4)nn3)cc2)C[C@@H]1C (relative stereo) [Compound 10b, 4-(((2S*,4R*)-2-Methyl-1-propionyl-1,2,3,4-tetrahydroquinolin-4-yl)amino)-N-((1-(4-(((2S,4R)-2-methyl-1-propionyl-1,2,3,4-tetrahydroquinolin-4-yl)amino)phenyl)-1H-1,2,3-triazol-4-yl)methyl)piperidine-1-carboxamide] | 524 | 180 | –
